{"source": "paper PMC7083565", "about": "“In vitro metabolism, reaction phenotyping, enzyme kinetics, CYP inhibition and induction potential of ataluren” (Pharmacology Research & Perspectives, 2020)", "key": {"[1]": {"assay": "Incubation with 16 individual human liver microsomes (correlation analysis)", "assay_type": "in vitro ADME", "details": "60 minutes, n = 2", "procedure": "Ataluren at a concentration of 10 μmol/L, was incubated (n = 2) with 16 individual HLM at 0.5 mg protein concentration/mL for 0 and 60 minutes at 37°C. Enzyme activities for UGTs 1A1, 1A4, 1A6, 1A9, and 2B7 were precharacterized under optimized conditions by the vendor. Incubation mixtures and procedures were essentially the same as the above. The supernatant fractions were analyzed by LC‐MS/MS to quantify the formation of ataluren‐O‐1β‐acyl glucuronide and the loss of ataluren, and the enzyme activities were correlated with precharacterized UGT enzyme activities. Detailed LC‐MS/MS conditions are summarized in LC‐MS/MS Analysis section. […] The ataluren acyl glucuronide formation rate after 60 minutes incubation was calculated using the amount of metabolite formed (pmol) divided by the protein amount in the incubation sample ([…]) and the incubation time (60 minutes). […]\nQuantification of ataluren loss and ataluren‐O‐1β‐acyl glucuronide formation was carried out with an LC‐MS/MS system, which consisted of two Shimadzu LC‐10ADvp pumps, a SPD10‐AVP UV/Vis detector, a Shimadzu SILHTA autosampler, a Shimadzu DGU‐14A degasser, and a Sciex API 4000 QTRAP mass spectrometer equipped with a Turbo Ionspray ionization source that operated in positive ionization mode. […]"}, "[2]": {"assay": "Glucuronidation in pooled human kidney microsomes", "assay_type": "in vitro ADME", "details": "kidney microsomes 1 mg protein/mL, 10 μmol/L, 60 minutes, n = 1", "procedure": "Ataluren at 10 μmol/L, was incubated (n = 1) with pooled human intestinal, lung, and kidney microsomes (1 mg protein/mL, preactivated with alamethicin) to evaluate if ataluren‐O‐1β‐acyl glucuronide will be formed in these extrahepatic tissues. Incubation mixtures and procedures were essentially the same as the above. The supernatant fractions were analyzed by LC‐MS/MS to quantify the formation of ataluren‐O‐1β‐acyl glucuronide and the loss of ataluren. Detailed LC‐MS/MS conditions are summarized in LC‐MS/MS Analysis section. […] The ataluren acyl glucuronide formation rate after 60 minutes incubation was calculated using the amount of metabolite formed (pmol) divided by the protein amount in the incubation sample ([…]) and the incubation time (60 minutes).\nQuantification of ataluren loss and ataluren‐O‐1β‐acyl glucuronide formation was carried out with an LC‐MS/MS system, which consisted of two Shimadzu LC‐10ADvp pumps, a SPD10‐AVP UV/Vis detector, a Shimadzu SILHTA autosampler, a Shimadzu DGU‐14A degasser, and a Sciex API 4000 QTRAP mass spectrometer equipped with a Turbo Ionspray ionization source that operated in positive ionization mode. […] Ion transitions monitored were at m/z 285 → m/z 123 for ataluren, m/z 461 → m/z 285 for ataluren acyl glucuronide, and m/z 289 → m/z 127 for ataluren‐D4 (internal standard), respectively."}, "CYP2B6": {"target": "T1, CYP2B6 (Homo sapiens, UniProt P20813)", "T1 construct": "tissue XenoTech LLC, Celsis-In Vitro Technologies, or Tissue Transformation Technologies; host or cells: pooled human liver microsomes", "T1 sequence (P20813 1-491)": "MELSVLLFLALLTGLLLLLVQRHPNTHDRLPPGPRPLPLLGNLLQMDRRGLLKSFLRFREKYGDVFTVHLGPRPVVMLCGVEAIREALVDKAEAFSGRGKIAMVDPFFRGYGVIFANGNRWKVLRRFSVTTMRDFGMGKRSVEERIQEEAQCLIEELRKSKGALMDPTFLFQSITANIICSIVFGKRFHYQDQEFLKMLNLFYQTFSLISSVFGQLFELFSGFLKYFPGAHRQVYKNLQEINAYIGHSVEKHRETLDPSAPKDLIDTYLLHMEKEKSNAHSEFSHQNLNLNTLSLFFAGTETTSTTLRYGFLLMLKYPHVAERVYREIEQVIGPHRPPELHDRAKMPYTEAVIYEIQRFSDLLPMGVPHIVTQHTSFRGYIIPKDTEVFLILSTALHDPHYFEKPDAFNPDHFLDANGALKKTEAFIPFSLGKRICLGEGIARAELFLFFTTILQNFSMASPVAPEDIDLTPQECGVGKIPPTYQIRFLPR", "assay": "CYP inhibition in pooled human liver microsomes: CYP2B6", "assay_type": "in vitro ADME", "details": "CYP2B6, HLM, estimated, concentrations up to 400 μmol/L", "procedure": "The final concentration of each probe substrate was near the experimentally determined Km value for the indicated enzyme. Ataluren or prototypical CYP inhibitors (positive controls) was incubated (n = 3) with probe substrates and HLM in 100 mmol/L phosphate buffer (pH 7.4) in a total volume of approximately 0.25 mL, and the reactions were initiated by the addition of 1 mmol/L NADPH at 37°C. The reactions were carried out using previously established conditions to ensure linearity with respect to protein concentration and incubation time (Table S1). Incubations were stopped with the addition of ice‐cold acetonitrile. Metabolite formation in incubations with test compound and control inhibitors was assessed with LC‐MS/MS methods for each of the reaction products as described in Table S2. […] After 7 minutes incubation at 37°C, the reaction was stopped by the addition of ice‐cold acetonitrile, followed by membrane plate filtration. The filtrates were used for LC‐MS/MS analysis. […] IC50 values were determined by nonlinear regression with GraphPad Prism 5 using the following four‐parameter sigmoidal‐logistic IC50 equation: Fit=background+range-background/[1+I/IC50^slope]\nWhere, I is the inhibitor concentration, and background was set to 0 and range to 100, as percent of control values are utilized. K i was determined by nonlinear regression with GraphPad Prism 5 using best fit model."}, "human hepatocytes": {"tested_on": "human hepatocytes", "assay": "MTT cytotoxicity assay in human hepatocytes", "assay_type": "cell-based", "details": "at the concentrations tested (4, 40, 400 µmol/L), data not shown"}}, "note": "pIC50: −log10 of the molar value.", "data": [{"smiles": "O=C(O)c1cccc(-c2noc(-c3ccccc3F)n2)c1", "note": "[ataluren, Ataluren]", "values": [{"measurement": "Rate, Loss of ataluren", "setting": "[1]; individual HLM sample H0273, 10 μmol/L", "result": 111, "unit": "pmol/mg/min"}, {"measurement": "Rate, Loss of ataluren", "setting": "[1]; individual HLM sample H0295, 10 μmol/L", "result": 134, "unit": "pmol/mg/min"}, {"measurement": "ataluren loss", "setting": "[2]", "result": 94.3, "unit": "%"}, {"measurement": "pIC50", "setting": "CYP2B6", "result": "< 3.40"}, {"measurement": "cytotoxicity (MTT assay)", "setting": "human hepatocytes", "result": "not cytotoxic"}]}]}
